Where a SMILES comes first, the peptide text is derived from it. [ ]: non-standard residue; d: D form. The star is where a group is joined. MeOCH2CH2OCH2CO = COCCOCC(=O)*; PEG = not defined here; PEG1 = NCCOCCC(=O)O
Legend:
[1] = Hydrogel formation with dilute sodium hydroxide, Crystal Violet overlay; format: physicochemical; conditions: 8.3 mg/ml peptide, 16.7 mM NaOH, room temperature 5-10 min
Method: FIG. 2: Hydrogel formation of GL13 peptides. Hydrogels are overlaid with Crystal Violet solution. D=DGL13K; R=DGL13R; PEG-L=PEG-LGL13K; pro-D=PEG-pro-DGL13K; E4=PEG-E4-pro-DGL13K; L=LGL13K.
FIG. 8: Hydrogels were formed with 4.2 mg/ml peptide+sodium hydroxide at the concentrations shown. Hydrogels were overlaid with Crystal Violet. Two phases indicate the formation of a hydrogel; Phase mixing indicates the absence of hydrogel. The hydrogels formed at 6.7 mM NaOH were not stable overnight (not shown).
FIG. 9: Hydrogels were formed with 16.7 mM sodium hydroxide and peptides at the concentrations shown. D=DGL13K; L=LGL13K; R=DGL13R. Hydrogels were overlaid with Crystal Violet and imaged within 10 min. Two phases indicate the formation of a hydrogel; Phase mixing indicates the absence of hydrogel.
The antimicrobial peptide GL13K can form a hydrogel when the peptide is reacted with dilute sodium hydroxide. Hydrogels were formed by incubating 8.3 mg/ml peptide with 16.7 mM NaOH and incubating at room temperature for 5-10 min. Hydrogels were overlaid with Crystal Violet. Two phases indicate the formation of a hydrogel; Phase mixing indicates the absence of hydrogel.

[2] = test system: S. aureus; assay: Peptide hydrogels placed on S. aureus plated on agar; format: cell-based, Staphylococcus aureus; conditions: hydrogel on agar plate
Method: FIG. 3. Peptide hydrogels on S. aureus.
(§1) To test antibacterial activity, S. aureus (FIG. 3) or P. aeruginosa (FIG. 4) were plated on agar and peptide hydrogels placed on top of the bacteria. The plates were incubated to allow a bacterial lawn to grow. […] The larger inhibition zone seen for DGL13R is consistent with a lack of hydrogel formation, which allowed the peptide solution to spread on the plate.

[3] = test system: P. aeruginosa; assay: Peptide hydrogels placed on P. aeruginosa plated on agar; format: cell-based, Pseudomonas aeruginosa; conditions: hydrogel on agar plate
Method: FIG. 4: Peptide hydrogels on P. aeruginosa Ac.Ac.=0.01% acetic acid mixed with NaOH (buffer control).
as §1

[4] = test system: Pseudomonas aeruginosa; format: cell-based
Method: (§2) Standard broth dilution assays were performed to determine the Minimal Inhibitory Concentration (MIC) of each peptide against Pseudomonas aeruginosa (P.a.) or Staphylococcus aureus (S.a.) (Table 2).

[5] = test system: Staphylococcus aureus; format: cell-based
Method: as §2

[6] = test system: mouse skin burn; assay: Mouse burn wound healing model; format: in vivo; conditions: seven days after the burn
[7] = in vitro; format: cell-based; conditions: human, human red blood cells
Method: FIG. 7: The in vitro toxicity of soluble DGL13K and PEG-pro-DGL 13K was tested against human Red Blood Cells and hemolysis recorded (% lysis compared to dH2O).
The dose causing lysis of 50% (LD50) of human red blood cells (RBC) was determined and the therapeutic index (Tx Indx) was calculated as LD50/MIC.

[8] = format: physicochemical
Method: FIG. 1: Turbidity of peptide solutions at 630 nm. Peptides were suspended in 0.01% acetic acid (our standard peptide solvent), Phosphate-Buffered Saline (PBS), pH 7.4 or dH2O.
LGL13K and DGL13K are not soluble in physiological salt solution (PBS). […] In FIG. 1, solubility is measured as the absence of optical density (OD) due to turbidity at 630 nm.

[9] = test system: Galleria mellonella (waxmoth larvae); conditions: in vivo
Method: FIG. 6: Galleria mellonella (wax moth larvae) were injected with liquid or hydrogel forms of the listed peptide. Larval survival was monitored for 48 h.
Hydrogels are less toxic in vitro and in vivo than the unmodified peptide. To test toxicity in vivo, hydrogels of DGL13K, PEG-pro-DGL13K (PEG-DGL13K) or liquid PEG-DGL13K were injected into Galleria mellonella (waxmoth larvae) and survival monitored for 48 hrs (FIG. 6). […] Hydrogel of PEG-pro-DGL13K was less toxic than hydrogel of the unmodified DGL13K peptide.

For CC[C@@H](C)[C@@H](NC(=O)[C@@H](CCCCN)NC(=O)CN)C(=O)N[C@@H](C(=O)N[C@H](CCCCN)C(=O)N[C@H](CC(C)C)C(=O)N[C@H](CCCCN)C(=O)N[C@H](C)C(=O)N[C@H](CO)C(=O)N[C@H](CC(C)C)C(=O)N[C@H](CCCCN)C(=O)N[C@H](CC(C)C)C(=O)N[C@H](CC(C)C)C(N)=O)[C@H](C)CC [DGL13K, NH2-Gly-d-Lys-d-Ile-d-Ile-d-Lys-d-Leu-d-Lys-d-Ala-d-Ser-d-Leu-d-Lys-d-Leu-d-Leu-CONH2] (H-G[dK][dI][dI][dK][dL][dK][dA][dS][dL][dK][dL][dL]-NH2), the Hydrogel formation [1] was “formed hydrogels”, the “Growth of S. aureus lawn under peptide hydrogel” value [2] was “prevented the growth” and the “Growth of P. aeruginosa lawn under peptide hydrogel” value [3] was “effectively prevented the growth”. The “Minimal Inhibitory Concentration P.a.” value [4] was 5.2 µg/mL, the “Minimal Inhibitory Concentration S.a.” value [5] was 1.3 to 2.6 µg/mL and the “Improved healing compared to SSD-treated mice” value [6] was 48%. For the same compound, the “Improved healing compared to the control mice” value ([6]; peptide in solution or hydrogel) was 36% and the HC50 [7] was 500 µg/mL.
With CC[C@@H](C)[C@@H](NC(=O)[C@@H](CCCNC(=N)N)NC(=O)CN)C(=O)N[C@@H](C(=O)N[C@H](CCCNC(=N)N)C(=O)N[C@H](CC(C)C)C(=O)N[C@H](CCCNC(=N)N)C(=O)N[C@H](C)C(=O)N[C@H](CO)C(=O)N[C@H](CC(C)C)C(=O)N[C@H](CCCNC(=N)N)C(=O)N[C@H](CC(C)C)C(=O)N[C@H](CC(C)C)C(N)=O)[C@H](C)CC [DGL13R, NH2-Gly-d-Arg-d-Ile-d-Ile-d-Arg-d-Leu-d-Arg-d-Ala-d-Ser-d-Leu-d-Arg-d-Leu-d-Leu-CONH2] (H-G[dR][dI][dI][dR][dL][dR][dA][dS][dL][dR][dL][dL]-NH2) the Hydrogel formation [1] was “did not form hydrogels”, the “Solubility in physiological salt solution (PBS)” value [8] was “increased solubility” and the “Growth of P. aeruginosa lawn under peptide hydrogel” value [3] was “effectively prevented the growth”. For the same compound, the “Minimal Inhibitory Concentration P.a.” value [4] was 2.6 µg/mL, the “Minimal Inhibitory Concentration S.a.” value [5] was 1.3 to 2.6 µg/mL and the HC50 [7] was 500 µg/mL.
With CC[C@@H](C)[C@@H](NC(=O)[C@@H](CCCCN)NC(=O)CNC(=O)CCOCCN)C(=O)N[C@@H](C(=O)N[C@H](CCCCN)C(=O)N[C@H](CC(C)C)C(=O)N[C@H](CCCCN)C(=O)N[C@H](C)C(=O)N[C@H](CO)C(=O)N[C@H](CC(C)C)C(=O)N[C@H](CCCCN)C(=O)N[C@H](CC(C)C)C(=O)N[C@H](CC(C)C)C(N)=O)[C@H](C)CC [PEG-DGL13K, PEG-Gly-d-Lys-d-Ile-d-Ile-d-Lys-d-Leu-d-Lys-d-Ala-d-Ser-d-Leu-d-Lys-d-Leu-d-Leu-CONH2] (H-[PEG1]G[dK][dI][dI][dK][dL][dK][dA][dS][dL][dK][dL][dL]-NH2) the “Solubility in physiological salt solution (PBS)” value [8] was “soluble in PBS”, the “Minimal Inhibitory Concentration P.a.” value [4] was 5 to 10.4 µg/mL and the “Toxicity of hydrogel compared with hydrogel of unmodified DGL13K” value [9] was “less toxic”.
In the case of CC[C@H](C)[C@H](NC(=O)[C@H](CCCCN)NC(=O)CNC(=O)COCCOC)C(=O)N[C@H](C(=O)N[C@@H](CCCCN)C(=O)N[C@@H](CC(C)C)C(=O)N[C@@H](CCCCN)C(=O)N[C@@H](C)C(=O)N[C@@H](CO)C(=O)N[C@@H](CC(C)C)C(=O)N[C@@H](CCCCN)C(=O)N[C@@H](CC(C)C)C(=O)N[C@@H](CC(C)C)C(N)=O)[C@@H](C)CC [PEG-LGL13K] (MeOCH2CH2OCH2CO-GKIIKLKASLKLL-NH2; N-terminus assumed), the Hydrogel formation [1] is reported as “formed hydrogels”, the “Minimal Inhibitory Concentration P.a.” value [4] is reported as 20.8 µg/mL and the “Minimal Inhibitory Concentration S.a.” value [5] is reported as 83 µg/mL.
In the case of CC[C@@H](C)[C@@H](NC(=O)[C@@H](CCCCN)NC(=O)CNC(=O)[C@@H](C)NC(=O)CNC(=O)CNC(=O)[C@@H](CC(C)C)NC(=O)CCOCCN)C(=O)N[C@@H](C(=O)N[C@H](CCCCN)C(=O)N[C@H](CC(C)C)C(=O)N[C@H](CCCCN)C(=O)N[C@H](C)C(=O)N[C@H](CO)C(=O)N[C@H](CC(C)C)C(=O)N[C@H](CCCCN)C(=O)N[C@H](CC(C)C)C(=O)N[C@H](CC(C)C)C(N)=O)[C@H](C)CC [PEG-pro-DGL13K, PEG-d-Leu-Gly-Gly-d-Ala-Gly-d-Lys-d-Ile-d-Ile-d-Lys-d-Leu-d-Lys-d-Ala-d-Ser-d-Leu-d-Lys-d-Leu-d-Leu-CONH2] (H-[PEG1][dL]GG[dA]G[dK][dI][dI][dK][dL][dK][dA][dS][dL][dK][dL][dL]-NH2), the “Minimal Inhibitory Concentration P.a.” value [4] is reported as 10.4 µg/mL, the “Minimal Inhibitory Concentration S.a.” value [5] is reported as 5.2 µg/mL and the “Toxicity of hydrogel compared with hydrogel of unmodified DGL13K” value [9] is reported as “less toxic”. It also gave an HC50 [7] of 1000 µg/mL.
In the case of H-GKIIKLKASLKLL-NH2 [LGL13K], the Hydrogel formation [1] is reported as “formed hydrogels”, the “Growth of S. aureus lawn under peptide hydrogel” value [2] is reported as “prevented the growth” and the “Solubility in physiological salt solution (PBS)” value [8] is reported as “not soluble”. The “Minimal Inhibitory Concentration P.a.” value [4] was 10.4 µg/mL, the “Minimal Inhibitory Concentration S.a.” value [5] was 20.8 µg/mL and the HC50 [7] was 188 µg/mL.
With “PEG-d-Glu-d-Glu-d-Glu-d-Glu-d-Leu-Gly-Gly-d-Ala-Gly-d-Lys-d-Ile-d-Ile-d-Lys-d-Leu-d-Lys-d-Ala-d-Ser-d-Leu-d-Lys-d-Leu-d-Leu-CONH2 ({PEG}-[dE][dE][dE][dE][dL]GG[dA]G[dK][dI][dI][dK][dL][dK][dA][dS][dL][dK][dL][dL]-NH2; reading uncertain) [PEG-E4-pro-DGL13K]” the Hydrogel formation [1] was “did not form hydrogels”.
With polymyxin B [reference compound] the Hydrogel formation [1] was “does not form hydrogel”.
